Structures can show the parent of a compound that is named as a salt.
The compounds below were run against kinase domain of IRE1 alpha (His-tagged kinase dead construct KR, AA G547-L977, D688N) (Homo sapiens (Human), UniProt O75460, D688N) (assay: IRE1α TR-FRET competition binding assay). Conditions: competition with Kinase Tracer 236, 0.1 μM; one hour at room temperature.
In short: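 Compound displacement of an ATP-site fluorescent tracer (0.1 μM final) measured by TR-FRET after 1 h at room temperature. Protein, a His-tagged D688N kinase/RNase construct from Sf9 cells (0.006 μM final), was pre-bound 1 h at 4° C to Eu anti-His antibody (0.002 μM) in pH 7.5 HEPES buffer.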

Chain of kinase domain of IRE1 alpha (His-tagged kinase dead construct KR, AA G547-L977, D688N) (O75460 547-977 D688N): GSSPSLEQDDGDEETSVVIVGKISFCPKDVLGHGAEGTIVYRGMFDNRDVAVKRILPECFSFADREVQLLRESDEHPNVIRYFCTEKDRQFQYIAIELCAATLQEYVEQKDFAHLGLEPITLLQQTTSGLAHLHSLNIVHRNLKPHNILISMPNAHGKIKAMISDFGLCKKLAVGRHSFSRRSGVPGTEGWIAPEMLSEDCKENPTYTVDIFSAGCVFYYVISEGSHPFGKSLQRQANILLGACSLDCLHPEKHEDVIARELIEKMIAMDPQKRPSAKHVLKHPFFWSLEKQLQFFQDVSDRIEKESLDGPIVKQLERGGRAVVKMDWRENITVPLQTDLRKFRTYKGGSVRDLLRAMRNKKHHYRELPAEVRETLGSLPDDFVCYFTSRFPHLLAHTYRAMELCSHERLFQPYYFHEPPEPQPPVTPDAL

SMILES	IC50
O=S(=O)(Cc1ccccc1)Nc1c(F)cc(Oc2ncccc2-c2ccnc(NC3CNCC4(C3)CC4(F)F)n2)c(F)c1F (single isomer, unassigned) [Compound 301, N-(4-((3-(2-((1,1-Difluoro-5-azaspiro[2.5]octan-7-yl)amino)pyrimidin-4-yl)pyridin-2-yl)oxy)-2,3,6-trifluorophenyl)-1-phenylmethanesulfonamide]	0.36 nM
O=S(=O)(Cc1ccccc1)Nc1ccc(Oc2ncccc2-c2ccnc(N[C@@H]3CNCC(F)(F)C3)n2)c(F)c1F [Compound 183, (S)-N-(4-((3-(2-((5,5-difluoropiperidin-3-yl)amino)pyrimidin-4-yl)pyridin-2-yl)oxy)-2,3-difluorophenyl)-1-phenylmethanesulfonamide]	8.5 nM
O=S(=O)(Nc1ccc(Oc2ncccc2-c2ccnc(N[C@H]3CCCNC3)n2)c(F)c1F)c1cc(F)cc(F)c1 [Compound 206, N-[2,3-Difluoro-4-[[3-[2-[[(3S)-3-piperidyl]amino]pyrimidin-4-yl]-2-pyridyl]oxy]phenyl]-3,5-difluoro-benzenesulfonamide]	8.2 nM
COCC1CNCC(Nc2nccc(-c3cccnc3Oc3cc(F)c(NS(=O)(=O)Cc4ccccc4)c(F)c3F)n2)C1 (single isomer, unassigned) [Compound 328, 1-Phenyl-N-(2,3,6-trifluoro-4-((3-(2-((5-(methoxymethyl)piperidin-3-yl)amino)pyrimidin-4-yl)pyridin-2-yl)oxy)phenyl)methanesulfonamide]	11 nM
Cc1c(NC(=O)Cc2ccc(Cl)cc2)ccc(Oc2ncccc2-c2ccnc(N[C@H]3CCCNC3)n2)c1C [Compound 130, (S)-2-(4-Chlorophenyl)-N-(2,3-dimethyl-4-((3-(2-(piperidin-3-ylamino)pyrimidin-4-yl)pyridin-2-yl)oxy)phenyl)acetamide]	170 nM
CN1CCC[C@H](Nc2nccc(-c3cccnc3Oc3ccc(NS(=O)(=O)Cc4ccccc4)c(F)c3F)n2)C1 [Compound 170, (S)-N-(2,3-difluoro-4-((3-(2-((1-methylpiperidin-3-yl)amino)pyrimidin-4-yl)pyridin-2-yl)oxy)phenyl)-1-phenylmethanesulfonamide]	11 nM
COCC1CNCC(Nc2nccc(-c3cccnc3Oc3cc(F)c(NS(=O)(=O)Cc4ccccc4)c(F)c3F)n2)C1 (single isomer, unassigned) [Compound 330, 1-Phenyl-N-(2,3,6-trifluoro-4-((3-(2-((5-(methoxymethyl)piperidin-3-yl)amino)pyrimidin-4-yl)pyridin-2-yl)oxy)phenyl)methanesulfonamide]	87 nM
N[C@H]1CC[C@H](Nc2nccc(-c3cccnc3Oc3c(F)cc(NS(=O)(=O)c4ccccc4Cl)cc3Cl)n2)CC1 [Compound 104, N-[4-[[3-[2-[(4-aminocyclohexyl)amino]pyrimidin-4-yl]-2-pyridyl]oxy]-3-chloro-5-fluoro-phenyl]-2-chloro-benzenesulfonamide hydrochloride]	5.9 nM
O=S(=O)(Cc1ccc(C2CC2)cc1)Nc1c(F)cc(Oc2ncccc2-c2ccnc(N[C@@H]3CNC[C@@H](F)C3)n2)c(F)c1F [Compound 315, 1-(4-Cyclopropylphenyl)-N-(2,3,6-trifluoro-4-((3-(2-(((3S,5S)-5-fluoropiperidin-3-yl)amino)pyrimidin-4-yl)pyridin-2-yl)oxy)phenyl)methanesulfonamide]	0.23 nM
N#Cc1ccc(CS(=O)(=O)Nc2ccc(Oc3ncccc3-c3ccnc(N[C@H]4CCCNC4)n3)c(F)c2F)cc1 [Compound 166, (S)-1-(4-cyanophcnyl)-N-(2,3-difluoro-4-((3-(2-(piperidin-3-ylamino)pyrimidin-4-yl)pyridin-2-yl)oxy)phenyl)methanesulfonamide]	3.5 nM
CC(C)(F)C1CNCC(Nc2nccc(-c3cccnc3Oc3cc(F)c(NS(=O)(=O)Cc4ccccc4)c(F)c3F)n2)C1 (centres unmarked) [Compound 333, 1-Phenyl-N-(2,3,6-trifluoro-4-((3-(2-((5-(2-fluoropropan-2-yl)piperidin-3-yl)amino)pyrimidin-4-yl)pyridin-2-yl)oxy)phenyl)methanesulfonamide hydrochloride]	0.19 nM
O=S(=O)(Nc1cccc(Oc2ncccc2-c2ccnc(N[C@H]3CCCNC3)n2)c1F)c1ccccc1Cl [Compound 141, (S)-2-Chloro-N-(2-fluoro-3-((3-(2-(piperidin-3-ylamino)pyrimidin-4-yl)pyridin-2-yl)oxy)phenyl)benzenesulfonamide hydrochloride]	17 nM
CCCS(=O)(=O)Nc1cccc(Oc2ncccc2-c2ccnc(N[C@H]3CCCNC3)n2)c1F [Compound 144, (S)—N-(2-Fluoro-3-((3-(2-(piperidin-3-ylamino)pyrimidin-4-yl)pyridin-2-yl)oxy)phenyl)propane-1-sulfonamide hydrochloride]	370 nM
O=S(=O)(Cc1ccccc1)Nc1c(F)cc(Oc2ncccc2-c2ccnc(NC3CNCC(C(F)F)C3)n2)c(F)c1F (single isomer, unassigned) [Compound 303, N-(4-((3-(2-((5-(Difluoromethyl)piperidin-3-yl)amino)pyrimidin-4-yl)pyridin-2-yl)oxy)-2,3,6-trifluorophenyl)-1-phenylmethanesulfonamide]	35 nM
O=S(=O)(CC1CC2(CCC2)C1)Nc1ccc(Oc2ncccc2-c2ccnc(N[C@H]3CCCNC3)n2)c(F)c1F [Compound 209, (S)-N-(2,3-difluoro-4-((3-(2-(piperidin-3-ylamino)pyrimidin-4-yl)pyridin-2-yl)oxy)phenyl)-1-(spiro[3.3]heptan-2-yl)methanesulfonamide]	7.5 nM
O=S(=O)(Cc1cccnc1)Nc1c(F)cc(Oc2ncccc2-c2ccnc(N[C@@H]3CNC[C@@H](F)C3)n2)c(F)c1F [Compound 256, 1-(Pyridin-3-yl)-N-(2,3,6-trifluoro-4-((3-(2-(((3S,5S)-5-fluoropiperidin-3-yl)amino)pyrimidin-4-yl)pyridin-2-yl)oxy)phenyl)methanesulfonamide]	1 nM
O=S(=O)(Cc1cccc(F)c1)Nc1ccc(Oc2ncccc2-c2ccnc(N[C@H]3CCCNC3)n2)c(F)c1F [Compound 231, (S)-N-(2,3-difluoro-4-((3-(2-(piperidin-3-ylamino)pyrimidin-4-yl)pyridin-2-yl)oxy)phenyl)-1-(3-fluorophenyl)methanesulfonamide]	7.2 nM
N#Cc1ccc(CS(=O)(=O)Nc2c(F)cc(Oc3ncccc3-c3ccnc(N[C@@H]4CNC[C@H](CF)C4)n3)c(F)c2F)cc1 [Compound 321, 1-(4-Cyanophenyl)-N-(2,3,6-trifluoro-4-((3-(2-(((3S,5R)-5-(fluoromethyl)piperidin-3-yl)amino)pyrimidin-4-yl)pyridin-2-yl)oxy)phenyl)methanesulfonamide]	0.65 nM
COCC1CNCC(Nc2nccc(-c3cccnc3Oc3cc(F)c(NS(=O)(=O)Cc4ccccc4)c(F)c3F)n2)C1 (single isomer, unassigned) [Compound 331, 1-Phenyl-N-(2,3,6-trifluoro-4-((3-(2-((5-(methoxymethyl)piperidin-3-yl)amino)pyrimidin-4-yl)pyridin-2-yl)oxy)phenyl)methanesulfonamide]	0.82 nM
CN=S(=O)(Cc1ccccc1)Nc1ccc(Oc2ncccc2-c2ccnc(N[C@H]3CCCNC3)n2)c(F)c1F (stereo partly drawn) [Compound 274, N-(2,3-difluoro-4-((3-(2-(((S)-piperidin-3-yl)amino)pyrimidin-4-yl)pyridin-2-yl)oxy)phenyl)-N′-methyl-1-phenylmethanesulfonimidamide]	400 nM
O=S(=O)(Cc1ccccc1)Nc1c(F)cc(Oc2ncccc2-c2ccnc(N[C@H]3CNC[C@H](F)C3)n2)c(F)c1F [Compound 193, 1-phenyl-N-(2,3,6-trifluoro-4-((3-(2-(((3R,5R)-5-fluoro-3-piperidyl)amino)pyrimidin-4-yl)-2-pyridyl)oxy)phenyl)methanesulfonamide]	33 nM
CC(F)(F)C1CNCC(Nc2nccc(-c3cccnc3Oc3cc(F)c(NS(=O)(=O)Cc4ccccc4)c(F)c3F)n2)C1 (single isomer, unassigned) [Compound 338, N-(4-((3-(2-((5-(1, l-Difluoroethyl)piperidin-3-yl)amino)pyrimidin-4-yl)pyridin-2-yl)oxy)-2,3,6-trifluorophenyl)-1-phenylmethanesulfonamide]	2.6 nM
CC(F)(F)C1CNCC(Nc2nccc(-c3cccnc3Oc3cc(F)c(NS(=O)(=O)Cc4ccccc4)c(F)c3F)n2)C1 (racemic) [Compound 337, N-(4-((3-(2-((5-(1,1-Difluoroethyl)piperidin-3-yl)amino)pyrimidin-4-yl)pyridin-2-yl)oxy)-2,3,6-trifluorophenyl)-1-phenylmethanesulfonamide hydrochloride]	8.9 nM
O=S(=O)(Nc1ccc(Cl)c(Oc2ncccc2-c2ccnc(N[C@H]3CCCNC3)n2)c1F)c1ccccc1Cl [Compound 137, (S)-2-Chloro-N-(4-chloro-2-fluoro-3-((3-(2-(piperidin-3-ylamino)pyrimidin-4-yl)pyridin-2-yl)oxy)phenyl)benzenesulfonamide hydrochloride]	7.4 nM
O=S(=O)(Nc1ccc(Oc2ncccc2-c2ccnc(N[C@H]3CCCNC3)n2)c(F)c1F)c1cccc(OC(F)F)c1 [Compound 208, (S)-N-(2,3-difluoro-4-((3-(2-(piperidin-3-ylamino)pyrimidin-4-yl)pyridin-2-yl)oxy)phenyl)-3-(difluoromethoxy)benzenesulfonamide]	11 nM
O=S(=O)(Cc1ccc(F)cc1)Nc1c(F)cc(Oc2ncccc2-c2ccnc(N[C@@H]3CNC[C@@H](F)C3)n2)c(F)c1F [Compound 372, 1-(4-Fluorophenyl)-N-(2,3,6-trifluoro-4-((3-(2-(((3S,5S)-5-fluoropiperidin-3-yl)amino)pyrimidin-4-yl)pyridin-2-yl)oxy)phenyl)methanesulfonamide]	0.2 nM

From US12071425B2 (Genentech, Inc., priority 2018, dated 2024)
